Holding throughout (format): ADME, organism-based
Data set [1] in a line: (§1) Evaluation of pharmacokinetic parameters for Zafirlukast following single oral administration to healthy boys and girls. Also on record: dose 20 mg, route oral. As to conditions: both, human, in vivo, dose 20 mg, dosed compound id 45, dosed compound name ZAFIRLUKAST, regimen Single dose, route oral, tissue Plasma.
Data set [2] has as its system Homo sapiens. Described as §1. Also on record: dose 20 mg, route oral. The conditions noted are these: in vivo, po, dosed compound id 45, dosed compound name ZAFIRLUKAST, regimen Single dose, tissue Plasma; for CL/F / Tmax: dose 20 mg.
Data set [3] is described as follows: (§2) Evaluation of pharmacokinetic parameters for Zafirlukast following oral administration of Zafirlukast tablets in subjects of varying health status. As to conditions: human, dosed compound id 45, dosed compound name ZAFIRLUKAST, tissue Plasma.
Data set [4] has as its system Homo sapiens. The description is as §2. The conditions noted are these: in vivo, po, dosed compound id 45, dosed compound name ZAFIRLUKAST, gender male and female, tissue Plasma.

The record followed here is ChEMBL document CHEMBL3832087, “DailyMed|setid=a60f39f6-d590-4b00-8751-7f12b7ec5385 | ZAFIRLUKAST- zafirlukast tablet, film coated|American Health Packaging”.

Where “and” joins values, the source holds several entries; their conditions need not be identical. Equal entries are not always repeated.

By Tmax is commonly meant the time from dosing to the highest level. The half-life is the time needed for the level to fall by half in the phase considered. The low end stands for rapid decline, the high end for slow decline. One may read the CL/F as the apparent clearance, not corrected for the fraction that reaches the circulation. By AUC is commonly meant concentration integrated over time. A low value points to less exposure. As usually defined, the Cmax is the peak of the concentration-time curve.

In the case of `COc1cc(C(=O)NS(=O)(=O)c2ccccc2C)ccc1Cc1cn(C)c2ccc(NC(=O)OC3CCCC3)cc12` [ZAFIRLUKAST], the Tmax in data set [1] (gender male and female) stood at 2.1 h; in data set [2] (gender male and female), 2.5 h; in data set [2] (gender male), 2 h; in data set [3] (in vivo), 3 h. Moreover, the half-life in data set [1] is 13.3 h; in data set [3] (in vivo, gender male and female), 10 h. Besides, the CL/F in data set [2] (gender male and female) was 9.2 L/h and 11.4 L/h; in data set [2] (gender male), 19.4 L/h. The AUC in data set [2] (gender male and female) was 2458 ng·h/mL and 2027 ng·h/mL; in data set [2] (gender male), 1137 ng·h/mL. In addition, the highest concentration (Cmax) was 756 ng/mL and 601 ng/mL in data set [2] (gender male and female); 326 ng/mL in data set [2] (gender male). Besides, the fraction unbound in data set [3] (read-out: Protein binding) was 0.01. In addition, the Vd/F in data set [3] (in vivo, read-out: Vss/F) amounted to 70 L. The t1/2 in data set [4] was 8 h and 16 h and 10 h.
